# Experimental data as given in patent publication US20210267944A1 (BioXcel Therapeutics, Inc., priority 2018, published 2021).
# Counter-ions that a name gives are not always drawn. Like-named read-outs stand apart in the source and are kept apart here.
# Settings: for Respiration rate, Min / Systolic blood pressure, Max / Systolic blood pressure, Mean ± SD / Systolic blood pressure, Median / Systolic blood pressure, Min / Diastolic blood pressure Max / Diastolic blood pressure Mean ± SD / Diastolic blood pressure Median / Diastolic blood pressure Min / Pulse rate, Max / Pulse rate, Mean ± SD / Pulse rate, Median / Pulse rate, Min / Respiration rate, Max / Respiration rate, Mean ± SD / Respiration rate, Median: SDAT patients, IV infusion; for Subject stopping Criteria met (safety stoppage rule): subject 102
# Description: Study drug IV infusion was to be stopped at any time if any of the following occurred: • There was more than 20 mm Hg decrease in systolic or diastolic blood pressure. • There was an isolated drop in Systolic BP<100 mm of Hg. • There was an isolated drop Diastolic BP<60 mm of Hg. • There was a decrease in heart rate of 20 beats per minute or a drop below 50 beats per minute. • Attainment of a RASS of −1 at the end of each 30 minutes infusion period.
# Return to baseline parameters was defined as BP falling within 15 mm of Hg of baseline reading prior to drug administration or HR falling within 10 beats per minute of baseline reading prior to drug administration.
compound,measurement,setting,value
Cc1cccc([C@H](C)c2cnc[nH]2)c1C [dexmedetomidine hydrochloride],"Respiration rate, Min",01:15 Hr,15 breaths/min
same,"Systolic blood pressure, Max",01:15 Hr,152 mm of Hg
same,"Systolic blood pressure, Mean ± SD",01:15 Hr,135.6 ± 13.94 mm of Hg
same,"Systolic blood pressure, Median",01:15 Hr,141.0 mm of Hg
same,"Systolic blood pressure, Min",01:15 Hr,110 mm of Hg
same,Diastolic blood pressure Max,01:30 Hr,84 mm of Hg
same,Diastolic blood pressure Mean ± SD,01:30 Hr,70.6 ± 8.14 mm of Hg
same,Diastolic blood pressure Median,01:30 Hr,70.0 mm of Hg
same,Diastolic blood pressure Min,01:30 Hr,62 mm of Hg
same,"Pulse rate, Max",01:30 Hr,94 beats/min
same,"Pulse rate, Mean ± SD",01:30 Hr,72.0 ± 14.66 beats/min
same,"Pulse rate, Median",01:30 Hr,71.0 beats/min
same,"Pulse rate, Min",01:30 Hr,52 beats/min
same,"Respiration rate, Max",01:30 Hr,25 breaths/min
same,"Respiration rate, Mean ± SD",01:30 Hr,18.6 ± 3.38 breaths/min
same,"Respiration rate, Median",01:30 Hr,19.0 breaths/min
same,"Respiration rate, Min",01:30 Hr,15 breaths/min
same,"Systolic blood pressure, Max",01:30 Hr,156 mm of Hg
same,"Systolic blood pressure, Mean ± SD",01:30 Hr,130.9 ± 13.44 mm of Hg
same,"Systolic blood pressure, Median",01:30 Hr,129.5 mm of Hg
same,"Systolic blood pressure, Min",01:30 Hr,112 mm of Hg
same,Diastolic blood pressure Max,01:45 Hr,86 mm of Hg
same,Diastolic blood pressure Mean ± SD,01:45 Hr,69.5 ± 11.82 mm of Hg
same,Diastolic blood pressure Median,01:45 Hr,66.0 mm of Hg
same,Diastolic blood pressure Min,01:45 Hr,60 mm of Hg
same,"Pulse rate, Max",01:45 Hr,100 beats/min
same,"Pulse rate, Mean ± SD",01:45 Hr,79.0 ± 14.23 beats/min
same,"Pulse rate, Median",01:45 Hr,79.0 beats/min
same,"Pulse rate, Min",01:45 Hr,61 beats/min
same,"Respiration rate, Max",01:45 Hr,23 breaths/min
same,"Respiration rate, Mean ± SD",01:45 Hr,18.6 ± 2.51 breaths/min
same,"Respiration rate, Median",01:45 Hr,18.0 breaths/min
same,"Respiration rate, Min",01:45 Hr,17 breaths/min
same,"Systolic blood pressure, Max",01:45 Hr,158 mm of Hg
same,"Systolic blood pressure, Mean ± SD",01:45 Hr,131.3 ± 23.43 mm of Hg
same,"Systolic blood pressure, Median",01:45 Hr,131.0 mm of Hg
same,"Systolic blood pressure, Min",01:45 Hr,105 mm of Hg
same,Diastolic blood pressure Max,02:00 Hr,86 mm of Hg
same,Diastolic blood pressure Mean ± SD,02:00 Hr,78.7 ± 11.02 mm of Hg
same,Diastolic blood pressure Median,02:00 Hr,84.0 mm of Hg
same,Diastolic blood pressure Min,02:00 Hr,66 mm of Hg
same,"Pulse rate, Max",02:00 Hr,94 beats/min
same,"Pulse rate, Mean ± SD",02:00 Hr,77.3 ± 20.82 beats/min
same,"Pulse rate, Median",02:00 Hr,84.0 beats/min
same,"Pulse rate, Min",02:00 Hr,54 beats/min
same,"Respiration rate, Max",02:00 Hr,20 breaths/min
same,"Respiration rate, Mean ± SD",02:00 Hr,18.3 ± 1.53 breaths/min
same,"Respiration rate, Median",02:00 Hr,18.0 breaths/min
same,"Respiration rate, Min",02:00 Hr,17 breaths/min
same,"Systolic blood pressure, Max",02:00 Hr,156 mm of Hg
same,"Systolic blood pressure, Mean ± SD",02:00 Hr,143.3 ± 17.01 mm of Hg
same,"Systolic blood pressure, Median",02:00 Hr,150.0 mm of Hg
same,"Systolic blood pressure, Min",02:00 Hr,124 mm of Hg
same,Diastolic blood pressure Max,02:15 Hr,85 mm of Hg
same,Diastolic blood pressure Mean ± SD,02:15 Hr,69.7 ± 13.28 mm of Hg
same,Diastolic blood pressure Median,02:15 Hr,62.0 mm of Hg
same,Diastolic blood pressure Min,02:15 Hr,62 mm of Hg
same,"Pulse rate, Max",02:15 Hr,94 beats/min
same,"Pulse rate, Mean ± SD",02:15 Hr,74.3 ± 21.13 beats/min
same,"Pulse rate, Median",02:15 Hr,77.0 beats/min
same,"Pulse rate, Min",02:15 Hr,52 beats/min
same,"Respiration rate, Max",02:15 Hr,20 breaths/min
same,"Respiration rate, Mean ± SD",02:15 Hr,19.3 ± 1.15 breaths/min
same,"Respiration rate, Median",02:15 Hr,20.0 breaths/min
same,"Respiration rate, Min",02:15 Hr,18 breaths/min
same,"Systolic blood pressure, Max",02:15 Hr,159 mm of Hg
same,"Systolic blood pressure, Mean ± SD",02:15 Hr,142.7 ± 20.98 mm of Hg
same,"Systolic blood pressure, Median",02:15 Hr,150.0 mm of Hg
same,"Systolic blood pressure, Min",02:15 Hr,119 mm of Hg
same,Diastolic blood pressure Max,02:30 Hr,83 mm of Hg
same,Diastolic blood pressure Mean ± SD,02:30 Hr,76.5 ± 9.19 mm of Hg
same,Diastolic blood pressure Median,02:30 Hr,76.5 mm of Hg
same,Diastolic blood pressure Min,02:30 Hr,70 mm of Hg
same,"Pulse rate, Max",02:30 Hr,96 beats/min
same,"Pulse rate, Mean ± SD",02:30 Hr,85.5 ± 14.85 beats/min
same,"Pulse rate, Median",02:30 Hr,85.5 beats/min
same,"Pulse rate, Min",02:30 Hr,75 beats/min
same,"Respiration rate, Max",02:30 Hr,"20, 20 breaths/min"
same,"Respiration rate, Mean ± SD",02:30 Hr,20.0 ± 0.00 breaths/min
same,"Respiration rate, Median",02:30 Hr,20.0 breaths/min
same,"Respiration rate, Min",02:30 Hr,"20, 20 breaths/min"
same,"Systolic blood pressure, Max",02:30 Hr,154 mm of Hg
same,"Systolic blood pressure, Mean ± SD",02:30 Hr,153.0 ± 1.41 mm of Hg
same,"Systolic blood pressure, Median",02:30 Hr,153.0 mm of Hg
same,"Systolic blood pressure, Min",02:30 Hr,152 mm of Hg
same,"Diastolic blood pressure mean values, in words","SDAT, during infusion",within clinically acceptable limits
same,"Pulse rate mean values, in words","SDAT, during infusion",within clinically acceptable limits
same,"Respiration rate values, in words","SDAT, during infusion",within clinically acceptable limits
same,"Systolic blood pressure mean values, in words","SDAT, during infusion",within clinically acceptable limits
same,Subject stopping Criteria met (safety stoppage rule),SDAT,only one subject's systolic BP reduced by more than 20 mm of Hg
same,Subject stopping Criteria met (safety stoppage rule),"SDAT, listed as Test",SBP >20 mm of Hg decrease
same,time for systolic BP to return to baseline levels after infusion was stopped,"SDAT, the one subject with SBP decrease >20 mm of Hg",≤ 10 min
